This note sets out measurements from patent US11773078B2, “Furin inhibitors” (Glaxosmithkline Intellectual Property Development Limited, priority 2018, dated 2023).

In test [1] the target is T1, Furin (108-574-Tev-Flag-His) enzyme (Homo sapiens, UniProt P09958).
T1 construct: Furin (108-574-Tev-Flag-His) enzyme was expressed and purified from CHO cells; TEV cleavage site (C); FLAG (C); His (C); made in house; host or cells: CHO cells
Nature of the test: Furin enzyme assay. It is filed as biochemical. The method, boiled down:
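Compounds ran as 11-point threefold dilutions (0.00017–10 μM final) against 40 pM furin, purified from CHO cells, for 2 h at room temperature. Buffer: 100 mM HEPES pH7.5 with 1 mM CaCl2 and 0.005% Triton X-100. Envision readout. Four-parameter curve gives pXC50.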

The target of test [2] is T2, furin (endogenous protease) in U20S cells (Homo sapiens, UniProt P09958).
T2 construct: the endogenous protease cleaves GFP; endogenous in cells; host or cells: U2OS cells transduced with a BacMam reporter
The test can be described thus: Furin cell-based assay (image-based, Golgi-targeted GFP with BMP10 furin/PCSK cleavage site).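 Further: Read-out is mean GFP fluorescence of Golgi puncta per cell by high-content imaging, retained when furin inhibited, over an eleven-point 0.00017–10 µM series, four-parameter fit.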 Particulars: 24-hour incubation, read-out: furin golgi cell pXC50 (converted).

Molecules are shown by their SMILES.

T1 sequence (P09958 108-574): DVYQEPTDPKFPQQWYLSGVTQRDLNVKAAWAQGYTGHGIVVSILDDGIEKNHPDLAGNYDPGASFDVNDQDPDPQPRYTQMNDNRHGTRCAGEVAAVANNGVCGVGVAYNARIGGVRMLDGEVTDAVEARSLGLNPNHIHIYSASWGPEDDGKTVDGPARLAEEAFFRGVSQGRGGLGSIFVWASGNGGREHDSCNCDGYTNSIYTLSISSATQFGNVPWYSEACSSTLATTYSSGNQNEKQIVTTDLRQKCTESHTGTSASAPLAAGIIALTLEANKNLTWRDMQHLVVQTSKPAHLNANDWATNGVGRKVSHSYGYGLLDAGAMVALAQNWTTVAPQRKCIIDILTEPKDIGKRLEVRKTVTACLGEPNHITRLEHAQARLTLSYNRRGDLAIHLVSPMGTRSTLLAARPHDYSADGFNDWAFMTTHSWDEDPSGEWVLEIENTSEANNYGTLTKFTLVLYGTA
T2 sequence (P09958 108-794): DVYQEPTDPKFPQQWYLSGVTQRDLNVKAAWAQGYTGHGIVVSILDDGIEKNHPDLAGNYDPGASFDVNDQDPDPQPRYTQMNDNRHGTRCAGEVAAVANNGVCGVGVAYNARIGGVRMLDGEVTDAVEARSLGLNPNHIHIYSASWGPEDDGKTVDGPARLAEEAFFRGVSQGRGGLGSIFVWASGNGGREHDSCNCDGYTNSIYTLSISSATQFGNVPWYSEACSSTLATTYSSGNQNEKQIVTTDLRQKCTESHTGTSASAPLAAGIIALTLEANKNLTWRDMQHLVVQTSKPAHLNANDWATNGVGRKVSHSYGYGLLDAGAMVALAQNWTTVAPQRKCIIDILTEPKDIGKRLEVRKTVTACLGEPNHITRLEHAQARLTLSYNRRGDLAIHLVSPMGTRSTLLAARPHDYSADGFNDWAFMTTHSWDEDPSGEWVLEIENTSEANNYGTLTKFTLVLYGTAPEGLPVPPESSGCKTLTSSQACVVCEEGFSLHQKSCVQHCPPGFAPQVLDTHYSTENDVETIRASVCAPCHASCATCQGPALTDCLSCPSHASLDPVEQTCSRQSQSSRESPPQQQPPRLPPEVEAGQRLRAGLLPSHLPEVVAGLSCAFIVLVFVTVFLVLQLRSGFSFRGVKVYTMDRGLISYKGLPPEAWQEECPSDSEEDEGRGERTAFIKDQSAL

As for `CC(=O)NCC1CCN(Cc2cc(Oc3cnc(N4CCN(CCCS(C)(=O)=O)CC4)nc3)nc(-c3cc(Cl)cc(Cl)c3)c2)CC1` [Example 259, N-((1-((2-(3,5-dichlorophenyl)-6-((2-(4-(3-(methylsulfonyl)propyl)piperazin-1-yl)pyrimidin-5-yl)oxy)pyridin-4-yl)methyl)piperidin-4-yl)methyl)acetamide], in test [1], the “furin enzyme pIC50” value is 9.8. Further, in test [2], the EC50 is 1.58 nM.

Turning to `CNC(=O)NCC1CCN(Cc2cc(Oc3cnc(N4CCN(CCC(N)=O)CC4)nc3)nc(-c3cc(Cl)cc(Cl)c3)c2)CC1` [Example 261, 3-(4-(5-((6-(3,5-dichlorophenyl)-4-((4-((3-methylureido)methyl)piperidin-1-yl)methyl)pyridin-2-yl)oxy)pyrimidin-2-yl)piperazin-1-yl)propanamide], in test [1], the “furin enzyme pIC50” value is 9.2. In test [2], the EC50 was 10 nM.

Turning to `CNC(=O)NCC1CCN(Cc2cc(Oc3cnc(N4CCN(CCOC)CC4)nc3)nc(-c3cc(Cl)cc(Cl)c3)c2)CC1` [Example 262, 1-((1-((2-(3,5-dichlorophenyl)-6-((2-(4-(2-methoxyethyl)piperazin-1-yl)pyrimidin-5-yl)oxy)pyridin-4-yl)methyl)piperidin-4-yl)methyl)-3-methylurea], the “furin enzyme pIC50” value in test [1] was 9. For the same molecule, the EC50 in test [2] was 0.316 nM.

As for `CS(=O)(=O)CCCN1CCN(c2ccc(Oc3cc(CN4CCC(CC(N)=O)CC4)cc(-c4cc(Cl)cc(Cl)c4)n3)cn2)CC1` [Example 264, 2-(1-((2-(3,5-dichlorophenyl)-6-((6-(4-(3-(methylsulfonyl)propyl)piperazin-1-yl)pyridin-3-yl)oxy)pyridin-4-yl)methyl)piperidin-4-yl)acetamide], in test [1], the “furin enzyme pIC50” value was determined as 8.6. Further, the EC50 in test [2] is 3.98 nM.

Turning to `CNC(=O)NCC1(O)CCN(Cc2cc(Oc3cnc(N4CCN(CCC(N)=O)CC4)nc3)nc(-c3cc(Cl)cc(Cl)c3)c2)CC1` [Example 265, 3-(4-(5-((6-(3,5-dichlorophenyl)-4-((4-hydroxy-4-((3-methylureido)methyl)piperidin-1-yl)methyl)pyridin-2-yl)oxy)pyrimidin-2-yl)piperazin-1-yl)propanamide], the “furin enzyme pIC50” value in test [1] is listed as 9.4. The EC50 in test [2] was 7.94 nM.

For `CC(=O)NCC1CCN(Cc2cc(Oc3cnc(N4CCN(CCC(=O)O)CC4)c(F)c3)nc(-c3cc(Cl)cc(Cl)c3)c2)CC1` [Example 266, 3-(4-(5-((4-((4-(acetamidomethyl)piperidin-1-yl)methyl)-6-(3,5-dichlorophenyl)pyridin-2-yl)oxy)-3-fluoropyridin-2-yl)piperazin-1-yl)propanoic acid], in test [1], the “furin enzyme pIC50” value worked out at 8.7. Moreover, the EC50 in test [2] was 50.1 nM.

Take `CCOC(=O)NCC1CCN(Cc2cc(Oc3cnc(N4CCN(CCC(=O)O)CC4)nc3)nc(-c3cc(Cl)cc(Cl)c3)c2)CC1` [Example 267, 3-(4-(5-((6-(3,5-dichlorophenyl)-4-((4-(((ethoxycarbonyl)amino)methyl)piperidin-1-yl)methyl)pyridin-2-yl)oxy)pyrimidin-2-yl)piperazin-1-yl)propanoic acid]: the “furin enzyme pIC50” value in test [1] was 9.9. In addition, the EC50 in test [2] is 50.1 nM.

For `CCNC(=O)CC1CCN(Cc2cc(Oc3cnc(N4CCN(CCC(=O)O)CC4)nc3)nc(-c3cc(Cl)cc(Cl)c3)c2)CC1` [Example 268, 3-(4-(5-((6-(3,5-dichlorophenyl)-4-((4-(2-(ethylamino)-2-oxoethyl)piperidin-1-yl)methyl)pyridin-2-yl)oxy)pyrimidin-2-yl)piperazin-1-yl)propanoic acid], the “furin enzyme pIC50” value in test [1] was found to be 9.1. In addition, the EC50 in test [2] is 63.1 nM.

For the molecule `CC(CC1CCN(Cc2cc(Oc3cnc(N4CCNCC4)nc3)nc(-c3cc(Cl)cc(Cl)c3)c2)CC1)C(=O)O` (stereo not drawn) [Example 269, 3-(1-((2-(3,5-dichlorophenyl)-6-((2-(piperazin-1-yl)pyrimidin-5-yl)oxy)pyridin-4-yl)methyl)piperidin-4-yl)-2-methylpropanoic acid], the “furin enzyme pIC50” value in test [1] came out at 8.5. For the same molecule, the EC50 in test [2] was 25.1 nM.

On to `CNC(=O)NCC1CCN(Cc2cc(Oc3cnc(N4CCN(CCC(=O)O)CC4)c(F)c3)nc(-c3cc(Cl)cc(Cl)c3)c2)CC1` [Example 270, 3-(4-(5-((6-(3,5-dichlorophenyl)-4-((4-((3-methylureido)methyl)piperidin-1-yl)methyl)pyridin-2-yl)oxy)-3-fluoropyridin-2-yl)piperazin-1-yl)propanoic acid], for which, in test [1], the “furin enzyme pIC50” value turned out to be 9.5. Besides, the EC50 in test [2] was 25.1 nM.

For the molecule `CS(=O)(=O)CCCN1CCN(c2ccc(Oc3cc(CN4CCC(CCC(=O)O)CC4)cc(-c4cc(Cl)cc(Cl)c4)n3)cn2)CC1` [Example 271, 3-(1-((2-(3,5-dichlorophenyl)-6-((6-(4-(3-(methylsulfonyl)propyl)piperazin-1-yl)pyridin-3-yl)oxy)pyridin-4-yl)methyl)piperidin-4-yl)propanoic acid], the “furin enzyme pIC50” value in test [1] amounted to 8.9. In test [2], the EC50 is 25.1 nM.

Consider `CS(=O)(=O)CCCN1CCN(c2ncc(Oc3cc(CN4CCC(CCC(=O)O)CC4)cc(-c4cc(Cl)cc(Cl)c4)n3)cn2)CC1` [Example 272, 3-(1-((2-(3,5-dichlorophenyl)-6-((2-(4-(3-(methylsulfonyl)propyl)piperazin-1-yl)pyrimidin-5-yl)oxy)pyridin-4-yl)methyl)piperidin-4-yl)propanoic acid], for which the “furin enzyme pIC50” value in test [1] was determined as 9.8. Moreover, the EC50 in test [2] is 31.6 nM.

On to `CC(=O)NCC1CCN(Cc2cc(Oc3cnc(N4CCN(CCC(N)=O)CC4)nc3)nc(-c3cc(F)c(F)c(Cl)c3)c2)CC1` [Example 273, 3-(4-(5-((4-((4-(acetamidomethyl)piperidin-1-yl)methyl)-6-(3-chloro-4,5-difluorophenyl)pyridin-2-yl)oxy)pyrimidin-2-yl)piperazin-1-yl)propanamide], for which the “furin enzyme pIC50” value in test [1] worked out at 8.2. The EC50 in test [2] was 31.6 nM.

As to `CNC(=O)NCC1CCN(Cc2cc(Oc3cnc(N4CCN(CCCS(C)(=O)=O)CC4)nc3)nc(-c3cc(F)cc(Cl)c3)c2)CC1` [Example 274, 1-((1-((2-(3-chloro-5-fluorophenyl)-6-((2-(4-(3-(methylsulfonyl)propyl)piperazin-1-yl)pyrimidin-5-yl)oxy)pyridin-4-yl)methyl)piperidin-4-yl)methyl)-3-methylurea], the “furin enzyme pIC50” value in test [1] came to 9. Besides, the EC50 in test [2] was 6.31 nM.

For `COC(=O)NCC1CCN(Cc2cc(Oc3cnc(N4CCNCC4)nc3)nc(-c3cc(F)cc(Cl)c3)c2)CC1` [Example 275, methyl ((1-((2-(3-chloro-5-fluorophenyl)-6-((2-(piperazin-1-yl)pyrimidin-5-yl)oxy)pyridin-4-yl)methyl)piperidin-4-yl)methyl)carbamate], in test [1], the “furin enzyme pIC50” value came out at 8.3. Also, the EC50 in test [2] is 100 nM.

Regarding `CS(=O)(=O)CCC1CCN(Cc2cc(Oc3ccc(N4CCN(CCC(=O)O)CC4)nc3)nc(-c3cc(Cl)cc(Cl)c3)c2)CC1` [Example 276, 3-(4-(5-((6-(3,5-dichlorophenyl)-4-((4-(2-(methylsulfonyl)ethyl)piperidin-1-yl)methyl)pyridin-2-yl)oxy)pyridin-2-yl)piperazin-1-yl)propanoic acid], the “furin enzyme pIC50” value in test [1] was 9. The EC50 in test [2] is 50.1 nM.

For `NS(=O)(=O)CCC1CCN(Cc2cc(Oc3ccc(N4CCN(CCC(=O)O)CC4)nc3)nc(-c3cc(Cl)cc(Cl)c3)c2)CC1` [Example 277, 3-(4-(5-((6-(3,5-dichlorophenyl)-4-((4-(2-sulfamoylethyl)piperidin-1-yl)methyl)pyridin-2-yl)oxy)pyridin-2-yl)piperazin-1-yl)propanoic acid], in test [1] (read-out: furin enzyme pIC50 (converted)), the IC50 is 0.0316 nM. The EC50 in test [2] was 50.1 nM.

Regarding `O=C(O)CC1CCN(Cc2cc(Oc3cnc(N4CCN(CCC5(O)CC5)CC4)nc3)nc(-c3cc(Cl)cc(Cl)c3)c2)CC1` [Example 278, 2-(1-((2-(3,5-dichlorophenyl)-6-((2-(4-(2-(1-hydroxycyclopropyl)ethyl)piperazin-1-yl)pyrimidin-5-yl)oxy)pyridin-4-yl)methyl)piperidin-4-yl)acetic acid], in test [1], the “furin enzyme pIC50” value is 9.4. The EC50 in test [2] is 10 nM.

Take `CC(C)(O)CCN1CCN(c2ncc(Oc3cc(CN4CCC(CC(=O)O)CC4)cc(-c4cc(Cl)cc(Cl)c4)n3)cn2)CC1` [Example 279, 2-(1-((2-(3,5-dichlorophenyl)-6-((2-(4-(3-hydroxy-3-methylbutyl)piperazin-1-yl)pyrimidin-5-yl)oxy)pyridin-4-yl)methyl)piperidin-4-yl)acetic acid]: in test [1], the “furin enzyme pIC50” value is 8.6. Besides, in test [2], the EC50 is 20 nM.

For the molecule `CC(C)(CO)CN1CCN(c2ncc(Oc3cc(CN4CCC(CC(=O)O)CC4)cc(-c4cc(Cl)cc(Cl)c4)n3)cn2)CC1` [Example 280, 2-(1-((2-(3,5-dichlorophenyl)-6-((2-(4-(3-hydroxy-2,2-dimethylpropyl)piperazin-1-yl)pyrimidin-5-yl)oxy)pyridin-4-yl)methyl)piperidin-4-yl)acetic acid], in test [1], the “furin enzyme pIC50” value is given as 8.3. For the same molecule, the EC50 in test [2] was 15.8 nM.

For the molecule `CC(=O)NCC1CCN(Cc2cc(Oc3ccc(N4CCN(C(C)CC(=O)O)CC4)nc3)nc(-c3cc(Cl)cc(Cl)c3)c2)CC1` (stereo not drawn) [Example 281, 3-(4-(5-((4-((4-(Acetamidomethyl)piperidin-1-yl)methyl)-6-(3,5-dichlorophenyl)pyridin-2-yl)oxy)pyridin-2-yl)piperazin-1-yl)butanoic acid], the “furin enzyme pIC50” value in test [1] was determined as 9.5. The EC50 in test [2] was 39.8 nM.
